The record followed here is article PMC5698552 (mBio, 2017).

SMILES strings stand for the structures.

Assay [1] concerns the target T1, UDP-galactopyranose mutase (BcUGM) (Botrytis cinerea, UniProt A0A384JG93).
T1 construct: gene BCIN_05g00580
Kind of assay: enzyme kinetics with purified recombinant BcUGM, varying UDP-Galp, HPLC-UV and LC-MS product detection. Format: biochemical.

The target in assay [2] is T1, UDP-galactopyranose mutase (BcUGM). Kind of assay: product of purified recombinant BcUGM detected by HILIC and LC-MS/MS. Format: biochemical.

T1 sequence (A0A384JG93 entry or part of it): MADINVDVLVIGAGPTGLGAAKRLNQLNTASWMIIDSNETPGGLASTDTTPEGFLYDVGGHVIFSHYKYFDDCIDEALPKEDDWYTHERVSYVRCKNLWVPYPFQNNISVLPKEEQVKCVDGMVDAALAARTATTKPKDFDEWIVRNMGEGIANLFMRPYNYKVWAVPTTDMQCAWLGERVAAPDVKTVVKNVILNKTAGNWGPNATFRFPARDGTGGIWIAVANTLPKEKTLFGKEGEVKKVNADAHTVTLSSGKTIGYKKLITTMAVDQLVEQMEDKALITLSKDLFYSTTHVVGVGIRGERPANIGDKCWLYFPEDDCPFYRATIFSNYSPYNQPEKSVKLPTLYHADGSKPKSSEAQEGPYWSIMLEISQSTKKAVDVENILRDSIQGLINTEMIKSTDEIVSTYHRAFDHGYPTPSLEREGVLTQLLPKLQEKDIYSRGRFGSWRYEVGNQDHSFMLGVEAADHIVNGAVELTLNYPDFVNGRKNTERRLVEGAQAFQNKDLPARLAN

As a reminder, the Ki is the dissociation constant of the complex between target and ligand, obtained from inhibition or displacement. As to `C[C@H]1O[C@H](OP(=O)(O)OP(=O)(O)OC[C@H]2O[C@@H](n3ccc(=O)[nH]c3=O)[C@H](O)[C@@H]2O)[C@H](O)[C@@H](O)C1=O` [UDP-KDG], in assay [1], the Ki came to 222 µM. With `O=c1ccn([C@@H]2O[C@H](COP(=O)(O)OP(=O)(O)O[C@H]3O[C@@H]([C@H](O)CO)[C@H](O)[C@H]3O)[C@@H](O)[C@H]2O)c(=O)[nH]1` [UDP-galactofuranose], the “product of purified recombinant BcUGM detected by HILIC and LC-MS/MS” value in assay [2] was “transforming UDP-galactopyranose to UDP-galactofuranose in the presence of NADPH and flavin adenine dinucleotide (FAD)”.
